According to patent publication US20230102554A1 (GB002, INC., priority 2019, published 2023):

Columns and labels:
[1] = target: T1, Human PDGFRβ, cytoplasmic domain (GST-PDGFRβ) (Homo sapiens, UniProt P09619); assay: Human PDGFRβ biochemical inhibition assay (off-chip Mobility Shift Assay)
T1 construct: made in house
Outline: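 GST-tagged cytoplasmic domain (aa 557-1106) from baculovirus was incubated 1 h at room temperature with compound, CSKtide, ATP at Km and Mg²⁺ in HEPES buffer, pH 7.5. Phosphorylated and unphosphorylated peptide were separated by off-chip mobility shift, and the product ratio P/(P+S) gave percent inhibition.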

[2] = target: T2, Human PDGFRα, cytoplasmic domain (GST-PDGFRα) (Homo sapiens, UniProt P16234); assay: Human PDGFRα biochemical inhibition assay (off-chip Mobility Shift Assay)
T2 construct: made in house
T2 sequence (P16234 550-1089 T674I): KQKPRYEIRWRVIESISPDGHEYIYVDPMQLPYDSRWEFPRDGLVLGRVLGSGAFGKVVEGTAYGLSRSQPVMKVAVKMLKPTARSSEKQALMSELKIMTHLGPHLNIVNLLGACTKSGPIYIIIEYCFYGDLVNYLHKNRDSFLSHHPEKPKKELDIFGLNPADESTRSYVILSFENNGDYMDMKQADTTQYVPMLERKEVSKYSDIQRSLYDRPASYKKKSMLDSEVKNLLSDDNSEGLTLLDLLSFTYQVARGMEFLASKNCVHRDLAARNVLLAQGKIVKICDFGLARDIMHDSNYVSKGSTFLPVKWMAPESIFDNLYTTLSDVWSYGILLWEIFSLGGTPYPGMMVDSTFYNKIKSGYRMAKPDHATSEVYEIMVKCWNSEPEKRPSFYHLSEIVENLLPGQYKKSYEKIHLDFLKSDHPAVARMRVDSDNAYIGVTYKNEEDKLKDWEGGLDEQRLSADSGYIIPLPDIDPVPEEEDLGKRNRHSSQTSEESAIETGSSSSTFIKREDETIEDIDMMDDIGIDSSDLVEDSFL

T1 sequence (P09619 with tags, fused parts or gaps): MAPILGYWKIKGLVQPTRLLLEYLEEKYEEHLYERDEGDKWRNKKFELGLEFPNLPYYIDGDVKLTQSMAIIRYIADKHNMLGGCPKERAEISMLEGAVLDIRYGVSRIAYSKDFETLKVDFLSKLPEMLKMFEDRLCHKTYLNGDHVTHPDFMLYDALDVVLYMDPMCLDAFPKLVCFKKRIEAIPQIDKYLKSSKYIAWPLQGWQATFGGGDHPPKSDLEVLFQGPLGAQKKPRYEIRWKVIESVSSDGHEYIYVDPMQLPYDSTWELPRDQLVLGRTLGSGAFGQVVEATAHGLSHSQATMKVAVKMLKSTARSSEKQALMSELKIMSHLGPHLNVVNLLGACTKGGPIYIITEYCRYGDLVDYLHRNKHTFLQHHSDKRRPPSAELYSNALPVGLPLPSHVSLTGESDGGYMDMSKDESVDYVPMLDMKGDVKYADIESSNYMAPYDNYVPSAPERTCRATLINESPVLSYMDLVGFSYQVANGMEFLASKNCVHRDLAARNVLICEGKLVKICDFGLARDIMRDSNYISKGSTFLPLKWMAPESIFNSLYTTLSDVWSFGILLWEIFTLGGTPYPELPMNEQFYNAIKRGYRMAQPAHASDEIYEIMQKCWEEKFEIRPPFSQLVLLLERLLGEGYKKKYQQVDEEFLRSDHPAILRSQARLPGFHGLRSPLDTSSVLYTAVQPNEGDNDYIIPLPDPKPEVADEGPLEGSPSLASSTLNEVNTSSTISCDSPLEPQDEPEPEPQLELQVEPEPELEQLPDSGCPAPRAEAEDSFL

SMILES	IC50 [1]	IC50 [2]
COc1ccc(C(=O)Nc2cccc([C@H](C)Nc3cnc4cnn(C)c4n3)c2)cn1 [Compound 122, (S)-6-methoxy-N-(3-(1-((1-methyl-1H-pyrazolo[3,4-b]pyrazin-6-yl)amino)ethyl)phenyl)nicotinamide]	300 to 1000 nM	< 300 nM
CCn1cc2ncc(N[C@@H](C)c3cccc(NC(=O)c4ccc(CN5CC[C@H](O)C5)c(C)c4)c3)nc2n1 [Compound 471, N-(3-((S)-1-((2-ethyl-2H-pyrazolo[3,4-b]pyrazin-6-yl)amino)ethyl)phenyl)-4-(((S)-3-hydroxypyrrolidin-1-yl)methyl)-3-methylbenzamide]	≥ 1000 nM	300 to 1000 nM
CCn1cc2ncc(N[C@@H](C)c3cccc(NC(=O)c4ccc(C(=O)N5CCN(C)CC5)c(C)c4)c3)nc2n1 [Compound 472, (S)-N-(3-(1-((2-ethyl-2H-pyrazolo[3,4-b]pyrazin-6-yl)amino)ethyl)phenyl)-3-methyl-4-(4-methylpiperazine-1-carbonyl)benzamide]	300 to 1000 nM	< 300 nM
C[C@H](Nc1cnc2cnn(C)c2n1)c1cccc(NC(=O)c2ccc(C#N)nc2)c1 [Compound 117, (S)-6-cyano-N-(3-(1-((1-methyl-1H-pyrazolo[3,4-b]pyrazin-6-yl)amino)ethyl)phenyl) nicotinamide]	≥ 1000 nM	< 300 nM
CCn1cc2ncc(N[C@@H](C)c3cccc(NC(=O)c4cnc(CN5CC6(COC6)C5)c(F)c4)c3)nc2n1 [Compound 500, (S)-6-((2-oxa-6-azaspiro[3.3]heptan-6-yl)methyl)-N-(3-(1-((2-ethyl-2H-pyrazolo[3,4-b]pyrazin-6-yl)amino)ethyl)phenyl)-5-fluoronicotinamide]	≥ 1000 nM	≥ 1000 nM
Cc1cncc(C(=O)Nc2cccc([C@H](C)Nc3cncc4c3cnn4C)c2)c1 [Compound 750, (S)-5-methyl-N-(3-(1-((1-methyl-1H-pyrazolo[3,4-c]pyridin-4-yl)amino)ethyl)phenyl)nicotinamide]	≥ 1000 nM	≥ 1000 nM
Cc1cncc(NC(=O)c2cccc([C@H](C)Nc3cnc4cnn(C)c4n3)c2)c1 [Compound 744, (S)-3-(1-((1-methyl-H-pyrazolo[3,4-b]pyrazin-6-yl)amino)ethyl)-N-(5-methylpyridin-3-yl)benzamide]	≥ 1000 nM	< 300 nM
C[C@H](Nc1cnc2cnn(C)c2n1)c1cccc(NC(=O)Nc2cccnc2)c1 [Compound 730, (S)-1-(3-(1-((1-methyl-1H-pyrazolo[3,4-b]pyrazin-6-yl)amino)ethyl)phenyl)-3-(pyridin-3-yl)urea]	300 to 1000 nM	< 300 nM
CCn1cc2ncc(N[C@@H](C)c3cccc(NC(=O)Cc4cccc(F)c4F)c3)nc2n1 [Compound 454, (S)-2-(2,3-difluorophenyl)-N-(3-(1-((2-ethyl-2H-pyrazolo[3,4-b]pyrazin-6-yl)amino)ethyl)phenyl)acetamide]	300 to 1000 nM	< 300 nM
Cc1cc(C(=O)Nc2cccc([C@H](C)Nc3cnc4cnn(C)c4n3)c2)ccc1O [Compound 240, (S)-4-hydroxy-3-methyl-N-(3-(1-((1-methylH-pyrazolo[3,4-b]pyrazin-6-yl)amino)ethyl)phenyl)benzamide]	< 300 nM	< 300 nM
CCn1cc2ncc(N[C@@H](C)c3cccc(NC(=O)c4cnc(N5CCOCC5)c(C)c4)c3)nc2n1 [Compound 358, (S)-N-(3-(1-((2-ethyl-2H-pyrazolo[3,4-b]pyrazin-6-yl)amino)ethyl)phenyl)-5-methyl-6-morpholinonicotinamide]	< 300 nM	< 300 nM
COc1cc(C(=O)Nc2cccc([C@H](C)Nc3cnc4cnn(C)c4n3)c2)cnc1OC [Compound 205, (S)-5,6-dimethoxy-N-(3-(1-((1-methyl-1H-pyrazolo[3,4-b]pyrazin-6-yl)amino)ethyl)phenyl)nicotinamide]	< 300 nM	< 300 nM
CCn1cc2ncc(N[C@@H](C)c3cc(NC(=O)c4ccc(OC5CCN(C)CC5)c(C)c4)ccc3F)nc2n1 [Compound 447, (S)-N-(3-(1-((2-ethyl-2H-pyrazolo[3,4-b]pyrazin-6-yl)amino)ethyl)-4-fluorophenyl)-3-methyl-4-((1-methylpiperidin-4-yl)oxy)benzamide]	< 300 nM	< 300 nM
C[C@H](Nc1cnc2[nH]ccc2n1)c1cc(NC(=O)c2ccc(C3CC3)nc2)ccc1F [Compound 599, (S)-N-(3-(1-((5H-pyrrolo[2,3-b]pyrazin-2-yl)amino)ethyl)-4-fluorophenyl)-6-cyclopropylnicotinamide]	< 300 nM	< 300 nM
CCn1cc2ncc(N[C@@H](C)c3cc(NC(=O)c4cc(C)c(CN5CCN(C)CC5)c(F)c4)ccc3C)nc2n1 [Compound 528, (S)-N-(3-(1-((2-ethyl-2H-pyrazolo[3,4-b]pyrazin-6-yl)amino)ethyl)-4-methylphenyl)-3-fluoro-5-methyl-4-((4-methylpiperazin-1-yl)methyl) benzamide]	< 300 nM	< 300 nM
CCOc1ccc(C(=O)Nc2cccc([C@H](C)Nc3cnc4[nH]nc(C)c4n3)c2)cn1 [Compound 537, (S)-6-ethoxy-N-(3-(1-((3-methyl-1H-pyrazolo[3,4-b]pyrazin-5-yl)amino)ethyl)phenyl)nicotinamide]	< 300 nM	< 300 nM

Now from value to compound:

IC50 [1]	IC50 [2]	SMILES
< 300 nM	< 300 nM	CCn1cc2ncc(N[C@@H](C)c3cccc(NC(=O)c4ccc(Cl)c(F)c4)c3)nc2n1 [Compound 347, (S)-4-chloro-N-(3-(1-((2-ethyl-2H-pyrazolo[3,4-b]pyrazin-6-yl)amino)ethyl)phenyl)-3-fluorobenzamide]
< 300 nM	< 300 nM	CCn1cnc2ncc(C(=O)Nc3cccc([C@H](C)Nc4cnc5cnn(C)c5n4)c3)cc21 [Compound 265, (S)-1-ethyl-N-(3-(1-((1-methyl-1H-pyrazolo[3,4-b]pyrazin-6-yl)amino)ethyl)phenyl)-1H-imidazo[4,5-b]pyridine-6-carboxamide]
< 300 nM	< 300 nM	COc1ccc2nc(N[C@@H](C)c3cccc(NC(=O)c4cncc(C)c4)c3)cnc2c1 [Compound 33, (S)-N-(3-(1-((6-methoxyquinoxalin-2-yl)amino)ethyl)phenyl)-5-methylnicotinamide]
< 300 nM	< 300 nM	CCn1cc2ncc(N[C@@H](C)c3cccc(NC(=O)c4cnc(Br)c(C)c4)c3)nc2n1 [Compound 350, (S)-6-bromo-N-(3-(1-((2-ethyl-2H-pyrazolo[3,4-b]pyrazin-6-yl)amino)ethyl)phenyl)-5-methylnicotinamide]
< 300 nM	< 300 nM	COc1ncc(C(=O)Nc2cccc([C@H](C)Nc3cnc4[nH]cc(-c5cnn(C)c5)c4n3)c2)cc1C [Compound 579, (S)-6-methoxy-5-methyl-N-(3-(1-((7-(1-methyl-1H-pyrazol-4-yl)-5H-pyrrolo[2,3-b]pyrazin-2-yl)amino)ethyl)phenyl) nicotinamide]
< 300 nM	< 300 nM	Cc1cc(C(=O)Nc2cccc([C@H](C)Nc3cnc4[nH]cc(C)c4n3)c2)cnc1C(F)(F)F [Compound 559, (S)-5-methyl-N-(3-(1-((7-methyl-5H-pyrrolo[2,3-b]pyrazin-2-yl)amino)ethyl)phenyl)-6-(trifluoromethyl) nicotinamide]
< 300 nM	< 300 nM	C[C@H](Nc1cnc2cn(CC3CCC3)nc2n1)c1cc(NC(=O)c2cnc(C(F)(F)F)s2)ccc1F [Compound 390, (S)-N-(3-(1-((2-(cyclobutylmethyl)-2H-pyrazolo[3,4-b]pyrazin-6-yl)amino)ethyl)-4-fluorophenyl)-2-(trifluoromethyl)thiazole-5-carboxamide]
< 300 nM	< 300 nM	Cc1cc2ncc(N[C@@H](C)c3cccc(NC(=O)c4ccc(OC(F)F)nc4)c3)nc2s1 [Compound 608, (S)-6-(difluoromethoxy)-N-(3-(1-((6-methylthieno[2,3-b]pyrazin-3-yl)amino)ethyl)phenyl)nicotinamide]
< 300 nM	< 300 nM	C[C@H](Nc1cnc2cn(C3CC3)nc2n1)c1cc(NC(=O)c2cnc(C(F)(F)F)s2)ccc1F [Compound 399, (S)-N-(3-(1-((2-cyclopropyl-2H-pyrazolo[3,4-b]pyrazin-6-yl)amino)ethyl)-4-fluorophenyl)-2-(trifluoromethyl)thiazole-5-carboxamide]
< 300 nM	< 300 nM	CCn1cc2ncc(N[C@@H](C)c3cccc(NC(=O)c4ccc(C=O)c(C)c4)c3)nc2n1 [Compound 401, (S)-N-(3-(1-((2-ethyl-2H-pyrazolo[3,4-b]pyrazin-6-yl)amino)ethyl)phenyl)-4-formyl-3-methylbenzamide]
< 300 nM	< 300 nM	C=C(C)c1ncc(C(=O)Nc2cccc([C@H](C)Nc3cnc4cnn(C)c4n3)c2)cc1C [Compound 216, (S)-5-methyl-N-(3-(1-((1-methyl-1H-pyrazolo[3,4-b]pyrazin-6-yl)amino)ethyl)phenyl)-6-(prop-1-en-2-yl) nicotinamide]
< 300 nM	< 300 nM	Cc1cncc(C(=O)Nc2cccc([C@H](C)Nc3cnc4cnn(C)c4n3)c2)c1 [Compound 8, (S)-5-methyl-N-(3-(1-((1-methyl-1H-pyrazolo[3,4-b]pyrazin-6-yl)amino)ethyl)phenyl)nicotinamide]
< 300 nM	< 300 nM	Cc1cncc(C(=O)Nc2cccc([C@H](C)Nc3cnc4cc(F)ccc4n3)c2)c1 [Compound 40, (S)-N-(3-(1-((6-fluoroquinoxalin-2-yl)amino)ethyl)phenyl)-5-methylnicotinamide]
< 300 nM	< 300 nM	COc1ccc(C(=O)Nc2cccc([C@H](C)Nc3cnc4cnn(C)c4n3)c2)cc1F [Compound 189, (S)-3-fluoro-4-methoxy-N-(3-(1-((1-methyl-1H-pyrazolo[3,4-b]pyrazin-6-yl)amino)ethyl)phenyl)benzamide]
